Test results reported in patent US12077503B2, “Substituted cyclic amides and their use as herbicides” (FMC CORPORATION, priority 2015, dated 2024).

Columns and labels:
Type in all cases: in vivo
[1] = tested on: ducksalad (Heteranthera limosa); assay: Test B flooded paddy test; details: Flood, 250 g ai/ha; 0 to 100 scale where 0 is no effect and 100 is complete control; 13 to 15 d
Method in brief: (§1)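 Compound goes directly into floodwater once pots are flooded 3 cm above soil, targeting plants at two leaves; the water depth is then held for the test duration. Plants sit 13–15 d in a greenhouse and are rated visually, 100 denoting complete control.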

rice (Oryra sativa) = assay: Test B flooded paddy test; details: Flood, 250 g ai/ha; 0 to 100 scale where 0 is no effect and 100 is complete control; 13 to 15 d
Method in brief: as §1

[2] = tested on: sedge, umbrella (small-flower umbrella sedge, Cyperus difformis); assay: Test B flooded paddy test; details: Flood, 250 g ai/ha; 0 to 100 scale where 0 is no effect and 100 is complete control; 13 to 15 d
Method in brief: as §1

[3] = tested on: barnyardgrass (Echinochloa crus-galli); assay: Test B flooded paddy test; details: Flood, 250 g ai/ha; 0 to 100 scale where 0 is no effect and 100 is complete control; 13 to 15 d
Method in brief: as §1

Kochia (Kochia scoparia) [4] = assay: Test A preemergence; details: for Plant response rating, Kochia: 125 g ai/ha, preemergence, 0 to 100 scale (0 no effect, 100 complete control); for Kochia plant response rating (0 to 100 scale, 0 is no effect, 100 is complete control): Preemergence, 500 g ai/ha, visual injury approx. 10 d
Method in brief: (§2)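 Preemergence soil spray on seeded pots or post-emergence spray on 1–2 leaf plants, in loam–sand blend. Greenhouse ~10 d. Visual rating 0–100 against untreated plants.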

[5] = tested on: giant foxtail (Setaria faberii); assay: Test A preemergence; details: for Plant response rating, Foxtail, Giant: 125 g ai/ha, preemergence, 0 to 100 scale (0 no effect, 100 complete control); for Foxtail, Giant plant response rating (0 to 100 scale, 0 is no effect, 100 is complete control): Preemergence, 500 g ai/ha, visual injury approx. 10 d
Method in brief: as §2

[6] = tested on: ragweed (common ragweed, Ambrosia elatior); assay: Test A preemergence; details: for Plant response rating, Ragweed: 125 g ai/ha; for Ragweed plant response rating (0 to 100 scale, 0 is no effect, 100 is complete control): 500 g ai/ha, visual injury approx. 10 d
Method in brief: as §2

[7] = tested on: ryegrass, Italian (Italian ryegrass, Lolium multiflorum); assay: Test A preemergence; details: for Plant response rating, Ryegrass, Italian: 125 g ai/ha; for Ryegrass, Italian plant response rating (0 to 100 scale, 0 is no effect, 100 is complete control): 500 g ai/ha, visual injury approx. 10 d
Method in brief: as §2

[8] = tested on: barnyardgrass (Echinochloa crus-galli); assay: Test A preemergence; details: for Plant response rating, Barnyardgrass: 125 g ai/ha, preemergence, 0 to 100 scale (0 no effect, 100 complete control); for Barnyardgrass plant response rating (0 to 100 scale, 0 is no effect, 100 is complete control): Preemergence, 500 g ai/ha, visual injury approx. 10 d
Method in brief: as §2

[9] = tested on: pigweed (Amaranthus retroflexus); assay: Test A preemergence; details: for Plant response rating, Pigweed: 125 g ai/ha; for Pigweed plant response rating (0 to 100 scale, 0 is no effect, 100 is complete control): 500 g ai/ha, visual injury approx. 10 d
Kochia (Kochia scoparia) [10] = assay: Test A postemergence; details: for Kochia plant response rating: 125 g ai/ha, visual injury rating on 0 to 100 scale (0 no effect, 100 complete control), approx. 10 d; for Plant response rating, Kochia: 500 g ai/ha
Method in brief: as §2

[11] = tested on: giant foxtail (Setaria faberii); assay: Test A postemergence; details: for Foxtail, Giant plant response rating: 125 g ai/ha, visual injury rating on 0 to 100 scale (0 no effect, 100 complete control), approx. 10 d; for Plant response rating, Foxtail, Giant: 500 g ai/ha
Method in brief: as §2

[12] = tested on: wheat (Triticum aestivum); assay: Test A postemergence; details: for Wheat plant response rating: 125 g ai/ha, visual injury rating on 0 to 100 scale (0 no effect, 100 complete control), approx. 10 d; for Plant response rating, Wheat: 500 g ai/ha
Method in brief: as §2

[13] = tested on: ragweed (common ragweed, Ambrosia elatior); assay: Test A postemergence; details: for Ragweed plant response rating: 125 g ai/ha, visual injury rating on 0 to 100 scale (0 no effect, 100 complete control), approx. 10 d; for Plant response rating, Ragweed: 500 g ai/ha
Method in brief: as §2

corn (Zea mays) = assay: Test A postemergence; details: postemergence; for Corn plant response rating: 125 g ai/ha, visual injury rating on 0 to 100 scale (0 no effect, 100 complete control), approx. 10 d; for Plant response rating, Corn: 500 g ai/ha, 0 to 100 scale, 0 no effect, 100 complete control
Method in brief: as §2

[14] = tested on: ryegrass, Italian (Italian ryegrass, Lolium multiflorum); assay: Test A postemergence; details: for Ryegrass, Italian plant response rating: 125 g ai/ha, visual injury rating on 0 to 100 scale (0 no effect, 100 complete control), approx. 10 d; for Plant response rating, Ryegrass, Italian: 500 g ai/ha
Method in brief: as §2

[15] = tested on: barnyardgrass (Echinochloa crus-galli); assay: Test A postemergence; details: postemergence; for Barnyardgrass plant response rating: 125 g ai/ha, visual injury rating on 0 to 100 scale (0 no effect, 100 complete control), approx. 10 d; for Plant response rating, Barnyardgrass: 500 g ai/ha, 0 to 100 scale, 0 no effect, 100 complete control
Method in brief: as §2

[16] = tested on: pigweed (Amaranthus retroflexus); assay: Test A postemergence; details: for Pigweed plant response rating: 125 g ai/ha, visual injury rating on 0 to 100 scale (0 no effect, 100 complete control), approx. 10 d; for Plant response rating, Pigweed: 500 g ai/ha
Method in brief: as §2

[17] = tested on: Galium (catchweed bedstraw, Galium aparine); assay: Test A postemergence; details: for Galium plant response rating: 125 g ai/ha, visual injury rating on 0 to 100 scale (0 no effect, 100 complete control), approx. 10 d; for Plant response rating, Galium: 500 g ai/ha
Method in brief: as §2

[18] = tested on: blackgrass (Alopecurus myosuroides); assay: Test A postemergence; details: postemergence; for Blackgrass plant response rating: 125 g ai/ha, visual injury rating on 0 to 100 scale (0 no effect, 100 complete control), approx. 10 d; for Plant response rating, Blackgrass: 500 g ai/ha, 0 to 100 scale, 0 no effect, 100 complete control
Method in brief: as §2

[19] = preemergence, 0 to 100 scale (0 no effect, 100 complete control)
[20] = postemergence, 0 to 100 scale, 0 no effect, 100 complete control
[21] = Preemergence, visual injury after approximately 10 d, 0 to 100 scale where 0 is no effect and 100 is complete control
[22] = Postemergence, 0 to 100 scale where 0 is no effect and 100 is complete control

Compound	Plant response rating, Ducksalad [1]	Plant response rating, Rice (rice (Oryra sativa))	Plant response rating, Sedge, Umbrella [2]	Plant response rating, Barnyardgrass [3]	Plant response rating, Kochia (Kochia (Kochia scoparia) [4])	Kochia plant response rating (0 to 100 scale, 0 is no effect, 100 is complete control) (Kochia (Kochia scoparia) [4])	Plant response rating, Foxtail, Giant [5]	Foxtail, Giant plant response rating (0 to 100 scale, 0 is no effect, 100 is complete control) [5]	Ragweed plant response rating (0 to 100 scale, 0 is no effect, 100 is complete control) ([6]; Preemergence)	Ryegrass, Italian plant response rating (0 to 100 scale, 0 is no effect, 100 is complete control) ([7]; Preemergence)	Plant response rating, Barnyardgrass [8]	Barnyardgrass plant response rating (0 to 100 scale, 0 is no effect, 100 is complete control) [8]	Pigweed plant response rating (0 to 100 scale, 0 is no effect, 100 is complete control) ([9]; Preemergence)	Kochia plant response rating (Kochia (Kochia scoparia) [10]; postemergence)	Foxtail, Giant plant response rating ([11]; postemergence)	Wheat plant response rating ([12]; postemergence)	Ragweed plant response rating ([13]; postemergence)	Corn plant response rating (corn (Zea mays))	Plant response rating, Corn (corn (Zea mays))	Ryegrass, Italian plant response rating ([14]; postemergence)	other results
CN1CC(c2ccc(F)cc2)C(C(=O)Nc2ccc(F)cc2F)C1=O (stereo not drawn) [Compound 440]	95	0	0	70	60	70	90	100	40	50	90	100	80	30	90	0	0	0	20	0	Plant response rating, Ragweed [6, 19]: 20; Plant response rating, Ryegrass, Italian [7, 19]: 0; Plant response rating, Pigweed [9, 19]: 20; Plant response rating, Kochia (Kochia (Kochia scoparia) [10]; [20]): 40; Plant response rating, Foxtail, Giant [11, 20]: 90; Plant response rating, Wheat [12, 20]: 50; Plant response rating, Ragweed [13, 20]: 0; Plant response rating, Ryegrass, Italian [14, 20]: 60; Barnyardgrass plant response rating [15]: 90; Plant response rating, Barnyardgrass [15]: 90; Pigweed plant response rating ([16]; postemergence): 0; Plant response rating, Pigweed [16, 20]: 20; Galium plant response rating ([17]; postemergence): 40; Plant response rating, Galium [17, 20]: 40; Blackgrass plant response rating [18]: 30; Plant response rating, Blackgrass [18]: 50
O=C1NCC(c2ccc(C(F)(F)F)cc2F)C1C(=O)Nc1cccc(F)c1F (stereo not drawn) [Compound 475]	100	15	0	20	70	70	90	90	60	40	90	90	90	40	90	0	20	0	60	20	Plant response rating, Ragweed [6, 21]: 50; Plant response rating, Ryegrass, Italian [7, 21]: 20; Plant response rating, Pigweed [9, 21]: 60; Plant response rating, Kochia (Kochia (Kochia scoparia) [10]; [22]): 60; Plant response rating, Foxtail, Giant [11, 22]: 90; Plant response rating, Wheat [12, 22]: 30; Plant response rating, Ragweed [13, 22]: 30; Plant response rating, Ryegrass, Italian [14, 22]: 30; Barnyardgrass plant response rating [15]: 90; Plant response rating, Barnyardgrass [15]: 90; Pigweed plant response rating ([16]; postemergence): 50; Plant response rating, Pigweed [16, 22]: 70; Galium plant response rating ([17]; postemergence): 50; Plant response rating, Galium [17, 22]: 60; Blackgrass plant response rating [18]: 30; Plant response rating, Blackgrass [18]: 40
